Measured values reported in patent publication US9131720B2, “High-potency sweetener composition with phytosterol and compositions sweetened therewith” (The Coca-Cola Company, priority 2005, dated 2015).

What was measured:
[1] = Sensory evaluation of sweetness linger by a panel of experts; assay type: in vivo; details: for Sweetness linger rating: 3-4 min after water rinse; for Sweetness Linger rating defined for control samples: scale anchors of the protocol, sucrose, 500 ppm REBA control sample
Experimental: In a particular embodiment, a panel of assessors is used to measure the reduction of sweetness linger. Briefly described, a panel of assessors (generally 8 to 12 individuals) is trained to evaluate sweetness perception and measure sweetness at several time points from when the sample is initially taken into the mouth until 3 minutes after it has been expectorated. […] A decrease in score for a time point measured after the sample has cleared the mouth indicates there has been a reduction in sweetness perception.
The panel of assessors may be trained using procedures well known to those of ordinary skill in the art. In a particular embodiment, the panel of assessors may be trained using the Spectrum™ Descriptive Analysis Method (Meilgaard et al, Sensory Evaluation Techniques, 3rd edition, Chapter 11). Desirably, the focus of training should be the recognition of and the measure of the basic tastes; specifically, sweet. In order to ensure accuracy and reproducibility of results, each assessor should repeat the measure of the reduction of sweetness linger about three to about five times per sample, taking at least a five minute break between each repetition and/or sample and rinsing well with water to clear the mouth.
Generally, the method of measuring sweetness comprises taking a 10 mL sample into the mouth, holding the sample in the mouth for 5 seconds and gently swirling the sample in the mouth, rating the sweetness intensity perceived at 5 seconds, expectorating the sample (without swallowing following expectorating the sample), rinsing with one mouthful of water (e.g., vigorously moving water in mouth as if with mouth wash) and expectorating the rinse water, rating the sweetness intensity perceived immediately upon expectorating the rinse water, waiting 45 seconds and, while waling those 45 seconds, identifying the time of maximum perceived sweetness intensity and rating the sweetness intensity at that time (moving the mouth normally and swallowing as needed), rating the sweetness intensity after another 10 seconds, rating the sweetness intensity after another 60 seconds (cumulative 120 seconds after rinse), and rating the sweetness intensity after still another 60 seconds (cumulative 180 seconds after rinse). Between samples take a 5 minute break, rinsing well with water to clear the mouth.
Sensory evaluation of the samples prepared in Example Set G was carried out under the following protocol, similar to that described hereinabove. In this test protocol, none of the samples were swallowed. All samples were expectorated and the mouth was rinsed with water after the tasting. Immediately upon sensing maximal sweetness, the sample was expectorated, the mouth was rinsed with water and the rate of sweetness decay (“Sweetness Linger”) was measured, where attention was focused on the sweetness 3-4 min after the water rinse. After sample tasting was complete, a salty oyster cracker was chewed followed by a water rinse, and at least 5 minutes followed before tasting the next sample. The sweetness linger was rated by a panel of experts in the sensory evaluation of foods and beverages using the following scale: 0=no sweetness linger, 1=very slight sweetness linger, 2=slight sweetness linger, 3 moderate sweetness linger, 4=moderately high sweetness linger, 5=high sweetness linger.
The “Sweetness Linger” rating for sucrose observed by this protocol is defined as 0. The Sweetness Linger of a 500 ppm of REBA control sample is defined as 5. […]

[2] = Rate of dissolution in H2O at 25° C. of rebaudioside A polymorphs; assay type: physicochemical
[3] = assay type: physicochemical
Experimental: A solution of rebaudioside A (>97% pure by HPLC) was prepared in double distilled water (12.5 gm in 50 mL, 25% concentration) by stirring the mixture at 40° C. for 5 minutes. An amorphous rebaudioside A polymorph was formed by immediately using the clear solution for spray drying with the Lab-Plant spray drier SD-04 instrument (Lab-Plant Ltd., West Yorkshire, U.K.). The solution was fed through the feed pump into the nozzle atomizer which atomized it into a spray of droplets with the help of a constant flow of nitrogen/air. […] This dry powder (11-12 g, H2O 6.74%) was discharged continuously from the drying chamber and was collected in a bottle.

[4] = 500 ppm REBA (H41: 360 ppm) in carbon-treated water with phosphoric acid (75%), pH 2.4-2.5, scale 0=no to 5=high sweetness linger

| Rate of dissolution in H2O at 25° C. [2] | Solubility in water at room temperature [3] [%] | Compound | Sweetness linger rating [1, 4] | Sweetness Linger rating defined for control samples [1] | Sweetness linger rating ([1]; 400 ppm REBA in citric acid/potassium citrate composition equivalent to diet lemon-lime beverage, scale 0=no, 1=very slight, 2=slight, 3=moderate, 4=moderately high, 5=high sweetness linger) |
| --- | --- | --- | --- | --- | --- |
|  |  | OC[C@H]1O[C@@](CO)(O[C@H]2O[C@H](CO)[C@@H](O)[C@H](O)[C@H]2O)[C@@H](O)[C@@H]1O [sugar, sucrose] | 0 | 0 |  |
|  |  | rebaudioside A | 5 | 5 | 5 |
| (>35.0%/ %/5 minutes | > 35.0 | rebaudioside A [Form 4] |  |  |  |
